Residues, ends and D or L forms follow the SMILES beside them. *: point of attachment. Pentanoyl = CCCCC(=O)*
Assays:
[1] = system: P. aeruginosa; conditions: 20 h
[2] = system: E. cloacae; conditions: 20 h
[3] = system: human erythrocytes; experiment: Hemolytic activity; type: cell-based; conditions: 15% suspension in PBS, 1 h, 37 °C, absorbance 540 nm, highest tested concentration 100 µM
[4] = system: S. aureus (ATCC 29213); type: cell-based; conditions: ATCC 29213, 20 h
[5] = system: E. coli (K-12 MG1655); type: cell-based; conditions: K-12, 20 h
Description: The broth microdilution method was used to determine minimal inhibitory concentration (MIC) and minimal bactericidal concentration (MBC), in accordance with the EUCAST standards for the broth microdilution method. Two-fold serial dilutions of the lipopeptides were used, and the final concentrations ranged from 0.19 to 100 µM. In brief, two-fold serial dilutions of the lipopeptides were performed in a 96-well plate in PBS, with a final volume of 100 µl per well, after which 100 µl of LB-broth media containing approximately 5 × 10^5 CFU/ml of bacteria was added to each well. The plate was then incubated for 20 h in 37 °C on a shaker (400 rpm). The effect of lipopeptide-antibiotic combinations was investigated by performing checkerboard assays. The assays were performed in accordance with the MIC and MBC tests conducted above, but with horizontal and longitudinal two-fold serial dilutions of the tested compounds. […] The fractional inhibitory concentration (FIC) and fractional bactericidal concentration (FBC) were calculated by the equation (MIC or MBC of peptide in combination/MIC or MBC of peptide alone) + (MIC or MBC of antibiotic in combination/MIC or MBC of antibiotic alone). Synergy was defined as FIC/FBC ≤ 0.5, additive when 0.5 < FIC/FBC ≤ 1, indifferent when 1 < FIC/FBC < 2 and antagonistic when FIC/FBC ≥ 2. All experiments were repeated at least three times.

[6] = Carboxyfluorescein release assay, bacterial liposome model; type: biochemical; conditions: 75:25 POPC:POPG liposomes, 25 µM lipid, 10 mM PBS pH 7.4, 10^–5–10^2 µM peptide, 60 min, fluorescence, Hill fit, n = 3; read-out: EC50 Bacterial (concentration that triggers 50% CF release)
How it was run: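 CF-loaded extruded 0.1 µm unilamellar liposomes: bacterial POPC:POPG 75:25, mammalian POPC:POPS:Chol 65:5:30. Liposomes at 25 µM lipid in PBS pH 7.4 incubated with peptide (10^–5–10^2 µM; n = 3), fluorescence read every 2.5 min for 1 h. Release normalized to 1% Triton X-100; EC50 from Hill-1 fit.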

## CCCCC(=O)N[C@@H](CC(C)C)C(=O)NCC(=O)N[C@H](C(=O)N[C@@H](CCCCN)C(=O)N[C@H](C(=O)N[C@@H](CC(C)C)C(=O)N[C@@H](Cc1c[nH]c2ccccc12)C(=O)N[C@@H](CO)C(=O)N[C@@H](C)C(=O)N[C@@H](Cc1ccc(O)cc1)C(=O)N[C@@H](CCCCN)C(=O)N[C@@H](Cc1c[nH]cn1)C(=O)N[C@@H](CCCNC(=N)N)C(=O)N[C@@H](CCCCN)C(=O)N[C@H](C(=O)N[C@H](C(N)=O)[C@@H](C)CC)[C@@H](C)O)[C@@H](C)CC)[C@@H](C)CC [L-6-C5] (Pentanoyl-LGIKILWSAYKHRKTI-NH2)
[1]
  MBC: 100 µM
  MIC: 50 µM
[2]
  MBC: > 100 µM
  MIC: > 100 µM
[3]
  HC, hemolytic concentration at 5% hemolytic activity: > 100 µM
[4]
  S. aureus MBC, lipopeptide alone: 6.25 µM
  S. aureus MIC, lipopeptide alone: 6.25 µM
[5]
  E. coli MBC, lipopeptide alone: 6.25 µM
  E. coli MIC, lipopeptide alone: 6.25 µM
[6]
  EC50: 110 nM
